Patent publication US20110295343A1, “NEAR-INFRARED ELECTROMAGNETIC MODIFICATION OF CELLULAR STEADY-STATE MEMBRANE POTENTIALS” (priority 2008, published 2011)
Several values for one entry are separate records, joined by “and”; a condition that tells them apart may be missing. Identical values can stand only once. Like-named read-outs stand apart in the source and are kept apart here.

What was measured:
C. albicans = test: Colony counts of C. albicans plated with Lamisil or Sporanox after sub-lethal NIMELS laser (Example XIII); format: cell-based, Candida albicans; conditions: for C. albicans Colony Counts, Control: no laser, group AF8, replicates 1-5; for C. albicans Colony Counts, Experimental: sub-lethal NIMELS laser (AF-8 dosimetry), replicates 1-5
Procedure: Similar cell culture and kinetic protocols were performed for all NIMELS irradiation with E. coli and C. albicans in vitro tests. […] A standardized suspension was aliquoted into selected wells in a 24-well tissue culture plate. Following laser treatments, 100 μL was removed from each well and serially diluted to 1:1000 resulting in a final dilution of 1:5×10^6 of initial culture. An aliquot of each final dilution were spread onto separate plates. The plates were then incubated at 37° C. for approximately 16-20 hours. Manual colony counts were performed and recorded.
The null hypothesis is μ1−μ2=0 and μ1−μ3=0 where: a) μ1 is sub-lethal dosimetry ftom the NIMEL laser system on C. albicans as a control and; b) μ2 is the same sub-lethal dosimetry from the NTMEL laser system on C. albicans with the addition of Sporanos at resistant MIC just below effectiveness level and; c) μ3 is the same sub-lethal dosimetry from the NIMEL laser system on C. albicans with the addition of Lamisil at resistant MIC just below effectiveness level.

S. aureus = conditions: cited from earlier work

CN(C/C=C/C#CC(C)(C)C)Cc1cccc2ccccc12 [Lamisil, terbinafine]
effect of sub-lethal NIMELS irradiation on antifungal action against C. albicans colonies (C. albicans; 0.5 ug/ml): potentiated by a sub-lethal dosimetry irradiation | C. albicans Colony Counts, Control (C. albicans; Lamisil 0.5 ug/ml): 290 and 335 and 334 and 280 | C. albicans Colony Counts, Experimental (C. albicans; Lamisil 0.5 ug/ml): 101 and 70 and 90 and 78 and 74

CCC(C)n1ncn(-c2ccc(N3CCN(c4ccc(OCC5COC(Cn6cncn6)(c6ccc(Cl)cc6Cl)O5)cc4)CC3)cc2)c1=O (stereo not shown) [Sporanox, itraconazole]
C. albicans Colony Counts, Control (C. albicans; Sporanox 0.5 ug/ml): 360 and 332 and 320 and 311 and 295 | C. albicans Colony Counts, Experimental (C. albicans; Sporanox 0.5 ug/ml): 110 and 86 and 91 and 80 and 107

CCCCCCCCCC(=O)N[C@@H](Cc1c[nH]c2ccccc12)C(=O)N[C@H](CC(N)=O)C(=O)N[C@@H](CC(=O)O)C(=O)N[C@@H]1C(=O)NCC(=O)N[C@@H](CCCN)C(=O)N[C@@H](CC(=O)O)C(=O)N[C@H](C)C(=O)N[C@@H](CC(=O)O)C(=O)NCC(=O)N[C@H](CO)C(=O)N[C@@H]([C@H](C)CC(=O)O)C(=O)N[C@@H](CC(=O)c2ccccc2N)C(=O)O[C@@H]1C [daptomycin]
daptomycin concentration to achieve a 3-log reduction (S. aureus; cell growth halted by erythromycin, within 2 h): 10 μg/ml | daptomycin concentration to achieve a 3-log reduction (S. aureus; used alone, stationary phase S. aureus, 10^10 CFU/ml): 32 μg/ml
